Test: O2 evolution from RuO2.xH2O-catalysed decomposition of H2O2 with stabilizer
Type: physicochemical
Method: A 50% strength aqueous solution of H2O2 (304 mg; 4.46 mmol) was added to 454 mg (4.46 mmol) of methyl pyruvate and to 535 mg (4.46 mmol) of glyoxylic methyl ester methyl hemiacetal, respectively. In the case of methyl pyruvate, a marked evolution of heat was discovered during the addition. After one hour, the H2O2/α-keto ester mixture was mixed with 1 ml of solvent and added to a suspension of 2.5 mg of RuO2.xH2O catalyst (Aldrich) in 4 ml of solvent. The suspension was introduced into a 50 ml flask which was maintained at room temperature in a water bath.
As a comparison, a suspension of 2.5 mg of RuO2.xH2O catalyst (Aldrich) in 4 ml of solvent was combined with a 50% strength aqueous solution of H2O2 (304 mg; 4.46 mmol) and 1 ml of solvent without stabilizer.
The amount of oxygen which […] the decomposition of the hydrogen peroxide was determined as a function of time using a Brooks meter, which permitted measurement of the gas flow and of the total amount of evolved gas.
The amount of oxygen is defined here as % of the maximum amount to be calculated on the basis of stoichiometry.

COC(=O)C(O)OC (stereo not drawn) [GMHA, glyoxylic methyl ester methyl hemiacetal]
O2 evolution V(O2) (Vmax(O2)*100%) (solv. acetic acid, t 1 min): 0%
O2 evolution V(O2) (Vmax(O2)*100%) (solv. acetic acid, t 2 min): 1%
O2 evolution V(O2) (Vmax(O2)*100%) (solv. acetic acid, t 3 min): 2%
O2 evolution V(O2) (Vmax(O2)*100%) (solv. acetic acid, t 4 min): 2%
O2 evolution V(O2) (Vmax(O2)*100%) (solv. acetic acid, t 5 min): 2%
O2 evolution V(O2) (Vmax(O2)*100%) (solv. acetic acid, t 10 min): 2%
O2 evolution V(O2) (Vmax(O2)*100%) (solv. acetic acid, t 15 min): 2%
O2 evolution V(O2) (Vmax(O2)*100%) (solv. acetic acid, t 20 min): 2%
O2 evolution V(O2) (Vmax(O2)*100%) (solv. acetic acid, t 25 min): 2%
O2 evolution V(O2) (Vmax(O2)*100%) (solv. acetic acid, t 30 min): 2%
O2 evolution V(O2) (Vmax(O2)*100%) (solv. acetic acid, t 35 min): 2%
O2 evolution V(O2) (Vmax(O2)*100%) (solv. acetic acid, t 40 min): 2%
O2 evolution V(O2) (Vmax(O2)*100%) (solv. acetone, t 1 min): 0%
O2 evolution V(O2) (Vmax(O2)*100%) (solv. acetone, t 2 min): 0%
O2 evolution V(O2) (Vmax(O2)*100%) (solv. acetone, t 3 min): 0%
O2 evolution V(O2) (Vmax(O2)*100%) (solv. acetone, t 4 min): 0%
O2 evolution V(O2) (Vmax(O2)*100%) (solv. acetone, t 5 min): 0%
O2 evolution V(O2) (Vmax(O2)*100%) (solv. acetone, t 10 min): 0%
O2 evolution V(O2) (Vmax(O2)*100%) (solv. acetone, t 15 min): 0%
O2 evolution V(O2) (Vmax(O2)*100%) (solv. acetone, t 20 min): 0%
O2 evolution V(O2) (Vmax(O2)*100%) (solv. acetone, t 25 min): 0%
O2 evolution V(O2) (Vmax(O2)*100%) (solv. acetone, t 30 min): 0%
O2 evolution V(O2) (Vmax(O2)*100%) (solv. acetone, t 35 min): 0%
O2 evolution V(O2) (Vmax(O2)*100%) (solv. acetone, t 40 min): 0%
O2 evolution V(O2) (Vmax(O2)*100%) (solv. acetonitrile, t 1 min): 3%
O2 evolution V(O2) (Vmax(O2)*100%) (solv. acetonitrile, t 2 min): 3%
O2 evolution V(O2) (Vmax(O2)*100%) (solv. acetonitrile, t 3 min): 3%
O2 evolution V(O2) (Vmax(O2)*100%) (solv. acetonitrile, t 4 min): 3%
O2 evolution V(O2) (Vmax(O2)*100%) (solv. acetonitrile, t 5 min): 3%
O2 evolution V(O2) (Vmax(O2)*100%) (solv. acetonitrile, t 10 min): 3%
O2 evolution V(O2) (Vmax(O2)*100%) (solv. acetonitrile, t 15 min): 3%
O2 evolution V(O2) (Vmax(O2)*100%) (solv. acetonitrile, t 20 min): 3%
O2 evolution V(O2) (Vmax(O2)*100%) (solv. acetonitrile, t 25 min): 3%
O2 evolution V(O2) (Vmax(O2)*100%) (solv. acetonitrile, t 30 min): 3%
O2 evolution V(O2) (Vmax(O2)*100%) (solv. acetonitrile, t 35 min): 3%
O2 evolution V(O2) (Vmax(O2)*100%) (solv. acetonitrile, t 40 min): 3%
O2 evolution V(O2) (Vmax(O2)*100%) (solv. ethyl acetate, t 1 min): 3%
O2 evolution V(O2) (Vmax(O2)*100%) (solv. ethyl acetate, t 2 min): 5%
O2 evolution V(O2) (Vmax(O2)*100%) (solv. ethyl acetate, t 3 min): 6%
O2 evolution V(O2) (Vmax(O2)*100%) (solv. ethyl acetate, t 4 min): 7%
O2 evolution V(O2) (Vmax(O2)*100%) (solv. ethyl acetate, t 5 min): 8%
O2 evolution V(O2) (Vmax(O2)*100%) (solv. ethyl acetate, t 10 min): 9%
O2 evolution V(O2) (Vmax(O2)*100%) (solv. ethyl acetate, t 15 min): 9%
O2 evolution V(O2) (Vmax(O2)*100%) (solv. ethyl acetate, t 20 min): 9%
O2 evolution V(O2) (Vmax(O2)*100%) (solv. ethyl acetate, t 25 min): 9%
O2 evolution V(O2) (Vmax(O2)*100%) (solv. ethyl acetate, t 30 min): 9%
O2 evolution V(O2) (Vmax(O2)*100%) (solv. ethyl acetate, t 35 min): 9%
O2 evolution V(O2) (Vmax(O2)*100%) (solv. ethyl acetate, t 40 min): 9%
O2 evolution V(O2) (Vmax(O2)*100%) (solv. methanol, t 1 min): 0%
O2 evolution V(O2) (Vmax(O2)*100%) (solv. methanol, t 2 min): 0%
O2 evolution V(O2) (Vmax(O2)*100%) (solv. methanol, t 3 min): 0%
O2 evolution V(O2) (Vmax(O2)*100%) (solv. methanol, t 4 min): 0%
O2 evolution V(O2) (Vmax(O2)*100%) (solv. methanol, t 5 min): 0%
O2 evolution V(O2) (Vmax(O2)*100%) (solv. methanol, t 10 min): 0%
O2 evolution V(O2) (Vmax(O2)*100%) (solv. methanol, t 15 min): 0%
O2 evolution V(O2) (Vmax(O2)*100%) (solv. methanol, t 20 min): 0%
O2 evolution V(O2) (Vmax(O2)*100%) (solv. methanol, t 25 min): 0%
O2 evolution V(O2) (Vmax(O2)*100%) (solv. methanol, t 30 min): 0%
O2 evolution V(O2) (Vmax(O2)*100%) (solv. methanol, t 35 min): 0%
O2 evolution V(O2) (Vmax(O2)*100%) (solv. methanol, t 40 min): 0%
O2 evolution V(O2) (Vmax(O2)*100%) (solv. t-butanol, t 1 min): 0%
O2 evolution V(O2) (Vmax(O2)*100%) (solv. t-butanol, t 2 min): 0%
O2 evolution V(O2) (Vmax(O2)*100%) (solv. t-butanol, t 3 min): 0%
O2 evolution V(O2) (Vmax(O2)*100%) (solv. t-butanol, t 4 min): 0%
O2 evolution V(O2) (Vmax(O2)*100%) (solv. t-butanol, t 5 min): 0%
O2 evolution V(O2) (Vmax(O2)*100%) (solv. t-butanol, t 10 min): 0%
O2 evolution V(O2) (Vmax(O2)*100%) (solv. t-butanol, t 15 min): 0%
O2 evolution V(O2) (Vmax(O2)*100%) (solv. t-butanol, t 20 min): 0%
O2 evolution V(O2) (Vmax(O2)*100%) (solv. t-butanol, t 25 min): 0%
O2 evolution V(O2) (Vmax(O2)*100%) (solv. t-butanol, t 30 min): 0%
O2 evolution V(O2) (Vmax(O2)*100%) (solv. t-butanol, t 35 min): 0%
O2 evolution V(O2) (Vmax(O2)*100%) (solv. t-butanol, t 40 min): 0%
O2 evolution V(O2) (Vmax(O2)*100%) (solv. water, t 1 min): 3%
O2 evolution V(O2) (Vmax(O2)*100%) (solv. water, t 2 min): 4%
O2 evolution V(O2) (Vmax(O2)*100%) (solv. water, t 3 min): 5%
O2 evolution V(O2) (Vmax(O2)*100%) (solv. water, t 4 min): 6%
O2 evolution V(O2) (Vmax(O2)*100%) (solv. water, t 5 min): 10%
O2 evolution V(O2) (Vmax(O2)*100%) (solv. water, t 10 min): 13%
O2 evolution V(O2) (Vmax(O2)*100%) (solv. water, t 15 min): 13%
O2 evolution V(O2) (Vmax(O2)*100%) (solv. water, t 20 min): 13%
O2 evolution V(O2) (Vmax(O2)*100%) (solv. water, t 25 min): 13%
O2 evolution V(O2) (Vmax(O2)*100%) (solv. water, t 30 min): 13%
O2 evolution V(O2) (Vmax(O2)*100%) (solv. water, t 35 min): 13%
O2 evolution V(O2) (Vmax(O2)*100%) (solv. water, t 40 min): 13%

— patent publication US6677466B1, “Method for stabilizing hydrogen peroxide” (DSM Fine Chemicals Austria NFG GmbH & Co KG, priority 1999, dated 2004)
